Assay in all cases: biochemical
Holding throughout (assay type): biochemical

The test system of test [1] is G190A HIV-1 RT DNA-dependent DNA polymerase activity. The settings on record: G190A RT; fold resistance IC50 mutant/IC50 WT. As for the experimental part: (§1) WT (wild-type) RT, and RTs harboring the NNRTI-resistant mutations K101E, K103N, Y181C, Y188C, G190A and P236L, were overexpressed and purified to homogeneity as described previously. The RT concentration was determined spectrophotometrically at 280 nm using an absorbance coefficient of 260,450 M^−1·cm^−1. The 7-hydroxy tropolone derivative 19,616 (2,7-dihydroxy 2,4,6-cyclo-heptatrien-1-one) was purchased from Molecular Diversity Preservation International (Basel, Switzerland). […] The benzisothiazolone derivatives were procured from MolPort (New York, NY, USA) or Enamine (Kyiv, Ukraine). The DNA and RNA oligonucleotides were synthesized and purified by Integrated DNA Technologies (Coralville, IA, USA). All other reagents were of the highest quality available and were used without further purification.
(§2) DDDP assays were also performed using a QuantiFluor ONE based spectrophotometric assay to detect double-stranded DNA synthesized by recombinant HIV-1 RT [14]. The reaction contained 40 nM of a template/primer comprising a 200 nt DNA template (5′-[…] […]-[…]-[…] […] […]-3′) annealed to an 18-nucleotide DNA primer (5′-[…]-3′), and a mix of 50 mM Tris-HCl pH 7.8, 50 mM NaCl, 10 mM MgCl2 and 50 µM dNTP. The reactions were stopped after 45 min by adding the detection reagent containing 1 × Quant-Fluor One (Promega) and 12.5 mM ethylenediaminetet-raacetic acid; the samples were transferred to a 96-well black plate, and fluorescence was measured at excitation/emission (490/535 nm).

In test [2] the target is T1, P236L HIV-1 RT DNA-dependent DNA polymerase activity (Human immunodeficiency virus type 1 group M subtype B, UniProt P04585, P823L).
T1 construct: made in house
As for the experimental part:
as §1, §2

For test [3], the target named is T2, K101E HIV-1 RT DNA-dependent DNA polymerase activity (Human immunodeficiency virus type 1 group M subtype B, UniProt P04585, K688E).
T2 construct: made in house
Here is the method:
as §1, §2

Each structure is given as a SMILES string.

For the molecule `CCN(CC)S(=O)(=O)c1cccc(-n2sc3ccccc3c2=O)c1` [Compound 4, N,N-diethyl-3-(3-oxobenzo[d]isothiazol-2(3H)-yl)benzenesulfonamide], the “Inhibition of RT DNA polymerase activity Fold-R” value in test [1] is reported as 1.5. Besides, the values for the IC50 in test [2] and in test [3] were 1.6 ± 0.9 µM and 1.8 ± 0.7 µM, respectively.

Turning to `CCOC(=O)Cc1csc(-n2sc3ccccc3c2=O)n1` [Compound 2, ethyl 2-(2-(3-oxobenzo[d]isothiazol-2(3H)-yl)thiazol-4-yl)acetate], the “Inhibition of RT DNA polymerase activity Fold-R” value in test [1] was determined as 0.7. The IC50 in test [2] amounted to 5.13 ± 1.68 µM; in test [3], 4.88 ± 1.56 µM.

`Cc1ccc(-n2sc3ccccc3c2=O)cc1S(=O)(=O)N1CCCCC1` [Compound 1, 2-(4-methyl-3-(piperidin-1-ylsulfonyl)phenyl)benzo[d]isothiazol-3(2H)-one]: the IC50 in test [2] stood at 2.22 ± 0.18 µM; in test [3], 7.33 ± 7.05 µM.
